For series [1], the system named is HCT-8 human colon tumor cells. Kind of series: Human Tumor Cell Line Assay, HCT-8. The format is cell-based. Conditions: 120 hours, read-out: HCT-8 activity score (cell density vs control). How it is done:
(§1) The following assay methods are utilized to evaluate the antitumor activity of the alkaloid compounds of the invention.
(§2) Human Tumor Cell Line Assay
(§3) Maintenance of Cell Lines
(§4) HCT-8 human colon tumor cells are grown in RPMI 1640 medium. A-549 human lung carcinoma cells are grown in Dublecco MEM medium. T-47D human breast cancer cells are cultured in Eagles MEM medium. All media (Biologos, Inc.) are supplemented with 10% fetal bovine serum and contain 50 ug/ml gentamicin. All humand tumor cell lines are incubated in humidified air containing 5% CO2 at 37° C. and subcultured once a week. The seeding levels are 200,000 T-47D cells, 60,000 HCT-8 cells and 300,000 A-549 cells per T-25 Flask. Vinblastine is used as a positive control.
(§5) 2. Incubate is a CO2 incubator for 48 hours.
(§6) 3. Add compound to each well and incubate for an additional 120 hours.
(§7) 4. Discard medium and stain with methylene blue (HCT-8) or crystal violet (A-549 and T-47D).
(§8) 5. Compare cell density of compound-treated with that of the control (no compound added) as follows: ND (not detectable), 90% 1+, 75-90% 2+, 50-74% 3+, 25-49% 4+, 25% of control growth.
(§9) The positive control is Vinblastine in aqueous solution at the following concentrations: […]

Series [2] deals with A-549 human lung carcinoma cells. Briefly: Human Tumor Cell Line Assay, A-549. The format is cell-based. Conditions: 120 hours, read-out: A-549 activity score (cell density vs control). How it is done: as §1, §2, §3, §4, §5, §6, §7, §8, §9
In a further series the test system is Mouse P388. Briefly: Mouse P388 in vivo antitumor activity (T/C). The conditions noted are these: Mouse P388, at 5 mg/kg.
Series [3] in a line: Immunomodulatory activity, two-way mixed lymphocyte reaction assay (% LCV). Format: cell-based, murine. Conditions: mouse, lymphocytes. An excerpt:
This example concerns immunomodulatory activity of compounds of the invention on murine derived, two-way mixed lymphocyte reaction assay.

Series [4] has as its system T-47D human breast cancer cells. Briefly: Human Tumor Cell Line Assay, T-47D. Conditions: T47D, 120 hours, read-out: T-47D activity score (cell density vs control). Format: cell-based. On the procedure: as §1, §2, §3, §4, §5, §6, §7, §8, §9
Series [5] deals with P388 mouse leukemia cells. Briefly: P338 (P388) Mouse Leukemia Cell Assay, in vitro. The format is cell-based. The conditions noted are these: 48 hours. How it is done: as §1
P338 Mouse Leukemia Cell Assay
as §3
P338 mouse leukemis cells are grown in Dulbecco MEM medium with 10% horse serum, 4 mM glutamine, and 20 ug/ml gentamycin (Biologos, Inc.). Cells are incubated in humidified air containing 10% CO2 at 37° C. and subcultured 2 time per week.
1. Add compound to each well of a 24-well plate to tube and allow solvent to evaporate to dryness.
2. Add 2 ml (1.2×10^5) cells to each well or tube and mix.
3. Incubate in 10% CO2 at 37° C. for 48 hours.
4. Read plates with an inverted microscope, scoring activity from 1+ to 4+ as follows: ND (not detectable), 90% 1+, 75-90% 2+, 50-74% 3+, 25-49% 4+, 25% of control growth.
Alternatively, the activity may be designated as IC50 concentration which is the concentration of compound required to inhibit 50% of cell growth on the plate.
Cell counts are performed on each tube and results are reported as percent of control.

In general, viability refers to the share of living cells, or the viability signal relative to a control. A word on the IC50: it is the concentration that inhibits the measured activity by half. The low end stands for greater potency, the high end for weaker potency.

The structures appear in SMILES notation. ≈ marks a conversion by molar mass, not a printed value.

On to `CN(C)CCc1c2ncsc2c2c3c(c4ccccc4nc13)C=CN2C` [Dercitin 1, dercitin 1], for which the activity at 0.01 µg/mL is greater than 90% in series [1] (0.01 ug/ml); greater than 90% in series [2] (A549, 0.01 ug/ml); greater than 90% in series [4] (0.01 ug/ml). Also, the activity at 0.1 µg/mL in series [1] (0.1 ug/ml) was less than 25%; in series [2] (A549, 0.1 ug/ml), less than 25%; in series [4] (0.1 ug/ml), less than 25%. Besides, the activity at 1 µg/mL is less than 25% in series [1] (1 ug/ml); less than 25% in series [2] (A549, 1 ug/ml); less than 25% in series [4] (1 ug/ml). Also, the activity at 2 µg/mL is less than 25% in series [1] (2 ug/ml); less than 25% in series [2] (A549, 2 ug/ml); less than 25% in series [4] (2 ug/ml). The “in vivo T/C” value with Mouse P388 amounted to 170%. Moreover, the viability in series [3] (0.01 ug/well) turned out to be 56%; in series [3] (0.1 ug/well), 48%; in series [3] (1.0 ug/well), 46%; in series [3] (10.0 ug/well) it was 67%. In addition, the midpoint of inhibition in series [5], the IC50, lay at 0.05 µg/mL (≈ 0.139 µM).

Regarding `CN(C)CCc1c2c3c(c4scnc14)N(C)CCC3c1ccccc1N2` (stereo not shown) [Tetrahydrodercitin 1, tetrahydrodercitin 1], the viability in series [3] (0.01 ug/well) was found to be 100%; in series [3] (0.1 ug/well) it was 91%; in series [3] (1.0 ug/well) it was 49%; in series [3] (10.0 ug/well) it was 41%.

Values taken from patent US4868191A, “Alkaloid compounds, and pharmaceutical compositions containing them” (Harbor Branch Oceanographic Institution, Inc., priority 1988, dated 1989).
